Experimental data taken from patent US8076487B2, “Pyridone derivative and herbicide” (Kumiai Chemical Industry Co., Ltd., priority 2006, dated 2011).

Assays:
Test in all cases: Test Example 1: herbicidal effect by soil application to paddy field
Format in all cases: in vivo
[1] = tested on: heartshape false pickerelweed (Monochoria vaginalis (Burm.f.) C.Presl); conditions: for herbicidal effect, Monochoria vaginalis (Burm. f.) C. Presl: paddy field soil application, active ingredient 1,000 g per 1 hectare, wettable powder added dropwise to water surface the day after sowing, examined on the 21st day after application
Excerpt: (§1) Test Example 1 Test on Herbicidal Effect by Soil Application to Paddy Field In a 100 cm2 plastic pot, paddy field soil was filled. After puddling and leveling, seeds of early watergrass (Echinochloa oryzicola […] (Monochoria vaginalis ([…] Japanese bulrush (Scirpus juncoides Roxb.) were sown, and water was filled to be flooded to a water depth of 3 cm. […] Then, on the 21st day after the application to the plants grew in a greenhouse, the herbicidal effect was examined in accordance with a standard shown in Table 34. [table]

[2] = tested on: Japanese bulrush (Scirpus juncoides Roxb.); conditions: for herbicidal effect, Scirpus juncoides Roxb.: paddy field soil application, active ingredient 1,000 g per 1 hectare, wettable powder added dropwise to water surface the day after sowing, examined on the 21st day after application
Excerpt: as §1

[3] = tested on: early watergrass (Echinochloa oryzicola Vasing); conditions: for herbicidal effect, Echinochloa oryzicola Vasing: paddy field soil application, active ingredient 1,000 g per 1 hectare, wettable powder added dropwise to water surface the day after sowing, examined on the 21st day after application
Excerpt: as §1

[4] = soil application to paddy field, rated by standard of Table 34

| SMILES | herbicidal effect, Monochoria vaginalis (Burm. f.) C. Presl [1] | herbicidal effect, Scirpus juncoides Roxb. [2] | herbicidal effect, Echinochloa oryzicola Vasing [3] | herbicidal effect (index), Monochoria vaginalis (Burm.f.) C.Presl [1, 4] | herbicidal effect (index), Scirpus juncoides Roxb. [2, 4] | herbicidal effect (index), Echinochloa oryzicola Vasing [3, 4] |
| --- | --- | --- | --- | --- | --- | --- |
| Cn1ncc(C(=O)c2ccc(C(F)(F)F)n(CC3CCCO3)c2=O)c1OC(=O)c1c(F)cc(F)cc1F (stereo not drawn) [IV-134] | 5 (90% or more of herbicidal effect and crop phytotoxicity) | 5 (90% or more of herbicidal effect and crop phytotoxicity) | 5 (90% or more of herbicidal effect and crop phytotoxicity) |  |  |  |
| Cn1ncc(C(=O)c2ccc(C(F)(F)F)n(C)c2=O)c1OCc1ccc(C(C)(C)C)cc1 [IV-192] | 5 (90% or more of herbicidal effect and crop phytotoxicity) | 5 (90% or more of herbicidal effect and crop phytotoxicity) | 5 (90% or more of herbicidal effect and crop phytotoxicity) |  |  |  |
| CCCCCCNn1c(C(F)(F)F)ccc(C(=O)C2=C(O)CCCC2=O)c1=O [I-166] | 5 (90% or more of herbicidal effect and crop phytotoxicity) | 5 (90% or more of herbicidal effect and crop phytotoxicity) | 5 (90% or more of herbicidal effect and crop phytotoxicity) |  |  |  |
| Cn1c(C(F)(F)F)ccc(C(=O)C2=C(Sc3cccc(Cl)c3)CCCC2=O)c1=O [II-12] | 5 (90% or more of herbicidal effect and crop phytotoxicity) | 5 (90% or more of herbicidal effect and crop phytotoxicity) | 5 (90% or more of herbicidal effect and crop phytotoxicity) |  |  |  |
| CSCCCn1c(C(F)(F)F)ccc(C(=O)c2cnn(C)c2O)c1=O [IV-56] | 5 (90% or more of herbicidal effect and crop phytotoxicity) | 5 (90% or more of herbicidal effect and crop phytotoxicity) | 5 (90% or more of herbicidal effect and crop phytotoxicity) |  |  |  |
| CCCS(=O)(=O)Oc1c(C(=O)c2ccc(C(F)(F)F)n(CC[S+](C)[O-])c2=O)cnn1C (stereo not drawn) [IV-53] | 4 (70 to less than 90% of herbicidal effect and crop phytotoxicity) | 4 (70 to less than 90% of herbicidal effect and crop phytotoxicity) | 4 (70 to less than 90% of herbicidal effect and crop phytotoxicity) |  |  |  |
| CCCn1ncc(C(=O)c2ccc(C(F)(F)F)n(C)c2=O)c1O [IV-213] | 5 (90% or more of herbicidal effect and crop phytotoxicity) | 5 (90% or more of herbicidal effect and crop phytotoxicity) | 5 (90% or more of herbicidal effect and crop phytotoxicity) |  |  |  |
| CCCS(=O)(=O)Oc1c(C(=O)c2ccc(C(F)(F)F)n(-c3cccc(S(C)(=O)=O)c3)c2=O)cnn1C [IV-75] | 5 (90% or more of herbicidal effect and crop phytotoxicity) | 5 (90% or more of herbicidal effect and crop phytotoxicity) | 5 (90% or more of herbicidal effect and crop phytotoxicity) |  |  |  |
| CCCS(=O)(=O)Oc1c(C(=O)c2ccc(C(F)(F)F)n(CCC[S+](C)[O-])c2=O)cnn1C (stereo not drawn) [IV-59] | 4 (70 to less than 90% of herbicidal effect and crop phytotoxicity) | 3 (50 to less than 70% of herbicidal effect and crop phytotoxicity) | 4 (70 to less than 90% of herbicidal effect and crop phytotoxicity) |  |  |  |
| COc1ccc(Cn2c(C(F)(F)F)ccc(C(=O)C3=C(O)CCCC3=O)c2=O)cc1 [I-122] | 5 (90% or more of herbicidal effect and crop phytotoxicity) | 5 (90% or more of herbicidal effect and crop phytotoxicity) | 5 (90% or more of herbicidal effect and crop phytotoxicity) |  |  |  |
| C=CCn1ncc(C(=O)c2ccc(C(F)(F)F)n(C)c2=O)c1O [IV-225] | 5 (90% or more of herbicidal effect and crop phytotoxicity) | 5 (90% or more of herbicidal effect and crop phytotoxicity) | 5 (90% or more of herbicidal effect and crop phytotoxicity) |  |  |  |
| Cn1c(C(F)(F)F)ccc(C(=O)C2=C(O)C(C)(C)CCC2=O)c1=O [II-2] | 5 (90% or more of herbicidal effect and crop phytotoxicity) | 5 (90% or more of herbicidal effect and crop phytotoxicity) | 5 (90% or more of herbicidal effect and crop phytotoxicity) |  |  |  |
| CCCS(=O)(=O)Oc1c(C(=O)c2ccc(C(F)(F)F)n(-c3cccc([S+](C)[O-])c3)c2=O)cnn1C (stereo not drawn) [IV-73] | 3 (50 to less than 70% of herbicidal effect and crop phytotoxicity) | 4 (70 to less than 90% of herbicidal effect and crop phytotoxicity) | 4 (70 to less than 90% of herbicidal effect and crop phytotoxicity) |  |  |  |
| O=C(Nn1c(C(F)(F)F)ccc(C(=O)C2=C(O)CCCC2=O)c1=O)OCc1ccccc1 [I-196] | 5 (90% or more of herbicidal effect and crop phytotoxicity) | 4 (70 to less than 90% of herbicidal effect and crop phytotoxicity) | 5 (90% or more of herbicidal effect and crop phytotoxicity) |  |  |  |
| N#CC(C(=O)c1ccc(C(F)(F)F)n(CC2CCCO2)c1=O)=C(O)C1CC1 (stereo not drawn) [V-26] |  |  |  | 5 (90% or more of herbicidal effect and crop phytotoxicity) | 4 (70 to less than 90% of herbicidal effect and crop phytotoxicity) | 5 (90% or more of herbicidal effect and crop phytotoxicity) |
| Cc1ccc(C(=O)C2=C(O)CCCC2=O)c(=O)n1-c1ccc(C(F)(F)F)cc1 [I-236] | 5 (90% or more of herbicidal effect and crop phytotoxicity) | 5 (90% or more of herbicidal effect and crop phytotoxicity) | 5 (90% or more of herbicidal effect and crop phytotoxicity) |  |  |  |
| COC1=C(C(=O)c2ccc(C(F)(F)F)n(C)c2=O)C(=O)CCC1C (stereo not drawn) [II-35] | 5 (90% or more of herbicidal effect and crop phytotoxicity) | 5 (90% or more of herbicidal effect and crop phytotoxicity) | 5 (90% or more of herbicidal effect and crop phytotoxicity) |  |  |  |
| CN(C(=O)OC(C)(C)C)n1c(C(F)(F)F)ccc(C(=O)C2=C(O)CCCC2=O)c1=O [I-194] | 5 (90% or more of herbicidal effect and crop phytotoxicity) | 5 (90% or more of herbicidal effect and crop phytotoxicity) | 5 (90% or more of herbicidal effect and crop phytotoxicity) |  |  |  |
| COc1ccc(-n2c(C(F)(F)F)ccc(C(=O)c3cnn(C)c3O)c2=O)c(OC)c1 [IV-76] | 5 (90% or more of herbicidal effect and crop phytotoxicity) | 5 (90% or more of herbicidal effect and crop phytotoxicity) | 4 (70 to less than 90% of herbicidal effect and crop phytotoxicity) |  |  |  |
| CCOC(=O)Nn1c(C(F)(F)F)ccc(C(=O)C2=C(O)CCCC2=O)c1=O [I-192] | 5 (90% or more of herbicidal effect and crop phytotoxicity) | 5 (90% or more of herbicidal effect and crop phytotoxicity) | 5 (90% or more of herbicidal effect and crop phytotoxicity) |  |  |  |
| CCCS(=O)(=O)Oc1c(C(=O)c2ccc(C(F)(F)F)n(CCCSC)c2=O)cnn1C [IV-57] | 5 (90% or more of herbicidal effect and crop phytotoxicity) | 2 (30 to less than 50% of herbicidal effect and crop phytotoxicity) | 5 (90% or more of herbicidal effect and crop phytotoxicity) |  |  |  |
| COCn1c(C(F)(F)F)ccc(C(=O)C2=C(O)CCCC2=O)c1=O [I-30] | 5 (90% or more of herbicidal effect and crop phytotoxicity) | 3 (50 to less than 70% of herbicidal effect and crop phytotoxicity) | 3 (50 to less than 70% of herbicidal effect and crop phytotoxicity) |  |  |  |
| O=C1CCCC(O)=C1C(=O)c1ccc(C(F)(F)F)n(CS(=O)(=O)C2CCCCC2)c1=O [I-62] | 5 (90% or more of herbicidal effect and crop phytotoxicity) | 4 (70 to less than 90% of herbicidal effect and crop phytotoxicity) | 5 (90% or more of herbicidal effect and crop phytotoxicity) |  |  |  |
